Data set [1] can be described thus: Stability in human liver microsomes (HLM). It counts as in vitro ADME. The conditions noted are these: 10 μM, 1.0 mg/mL protein, NADPH, 60 min. The method, then:
(§1) Stability of Compound 1 and its diastereomer were determined in subcellular fractions (microsomes and S9) of human liver and intestine in duplicate for each matrix. Pooled liver and intestinal microsomal, intestinal and liver S9 proteins (1.0 mg/mL), suspended in incubation buffer (100 mM potassium phosphate, pH 7.4, 5 mM MgCl2, and 0.1 mM EDTA), were preincubated for 5 min at 37° C. with 10 μM of a test compound from a 10 mM stock solution in DMSO (final DMSO concentration was 0.1%); the reaction was initiated by the addition of NADPH (3 mM final concentration). At specific times (0 and 60 min), 0.1 mL samples were taken and the reaction terminated by the addition of 4 volumes of stop solution (acetonitrile with 500 ng/mL carbutamide as an internal standard). The samples were vortexed for 30 sec and then centrifuged at 16,000 g for 10 min. 100 μL of supernatants were transferred to 96 deep-well plates preloaded with 100 μL distilled water and analyzed after mixing by LC-MS/MS. The MS peak area ratio of the test compound versus the internal standard was calculated and percent unchanged test compound over 60 minutes was calculated using this ratio.

Data set [2] in a line: Stability in human intestinal microsomes (HIM). It counts as in vitro ADME. The following applies: 10 μM, 1.0 mg/mL protein, NADPH, 60 min. How it is done: as §1
A short description of data set [3]: Stability in human liver S9 fraction (HLS9). It counts as in vitro ADME. The following applies: 10 μM, 1.0 mg/mL protein, NADPH, 60 min. The method, then:
as §1

Data set [4] can be described thus: Stability in HIS9 (intestinal S9). The following applies: 10 μM, 1.0 mg/mL protein, NADPH, 60 min. Type of data set: in vitro ADME, human. How it is done: HLM=Human liver microsome; HIM=Human intestinal microsome; HLS9=Human liver S9 fraction; HIS9=Human […] S9 fraction; SGF=Simulated gastric fluid; SIF=Simulated intestinal fluid.
as §1

A further data set has as its system fresh human hepatocytes. The data set is described as follows: Release of active metabolite in fresh human hepatocytes. Type of data set: in vitro ADME. The following applies: intracellular triphosphate, 10 μM test compound. How it is done: (§2) Plates of fresh human and mouse hepatocytes were obtained on ice. The medium was removed and replaced with hepatocyte culture medium (William's E supplemented with penicillin-streptomycin, 1% L-glutamine, 1% insulin-transferrin-selenium and 0.1 μM Dexamethasone (Invitrogen) or with Invitro GRO HI medium complemented with Torpedo antibiotics (Celsis)). Cells were left overnight in an incubator at 37° C. to acclimatize to culture and the medium.
(§3) Hepatocyte incubations were conducted at a final volume of 0.5 mL hepatocyte culture medium/well (0.8 million cells/well for human and 0.5 million cells/well for mouse; 12 well plate no overlay, collagen coat). Culture medium from overnight incubation of cells was removed and replaced with fresh medium, pre-warmed to 37° C., containing 10 μM of the test compound from a stock solution in DMSO (final DMSO concentration was 0.1%). At each specific time point, incubation medium was removed and cell monolayers were carefully washed two times with ice-cold PBS. Following the last wash, all PBS was carefully removed and 1.0 mL of extraction solution (ice-cold 70% methanol/30% water) added. Cells were scraped off and suspended in the extraction solution, transferred to 2 mL polypropylene microfuge tubes and intracellular contents extracted overnight at −20° C.
(§4) After the overnight treatment the cellular extracts were prepared by centrifugation at 16,000×g for 10 min to remove cellular debris. The remaining sample was then dried using a refrigerated centrivap concentrator. Dry extracts were reconstituted in 1000 μL of HPLC-grade water and centrifuged at 16,000×g for 10 min. Aliquots (100 μL each) of the supernatant were transferred into a 96 well plate and 2′-C-methyl-adenosine 5′-triphosphate, trisodium salt (4 ng/mL final concentration) was added as the internal standard (1S) for LC-MS/MS analysis.
(§5) The incubation time points were 6, 24 and 48 hours for human hepatocytes and 1, 4, 8, 12 and 24 hours for mouse hepatocytes.

The subject of another data set is mouse hepatocytes. The data set is described as follows: Release of active metabolite in mouse hepatocytes. It counts as in vitro ADME. The conditions noted are these: 10 μM test compound. How it is done:
as §2, §3, §4, §5

Data set [5] can be described thus: Plasma and liver pharmacokinetics following a single oral dose in CD-1 mice. It counts as in vivo. The following applies: single oral dose in PEG 200, value at 1 μmol/kg; for Ms 2′-F, 2′-MeGTP AUC: mouse liver; for Ms Plasma 2′-F, 2′-MeG AUC / Ms Plasma 2′-F, 2′-MeG Cmax: mouse plasma. How it is done:
A single oral dose of Compound 1 at 25 mg/kg in PEG 200 (dose volume 5 mL/kg) was administered to nine CD-1 male mice. Five untreated animals were used for the collection of control plasma and liver. Terminal plasma and liver samples were collected from three animals per time point at 4, 12 and 24 hours post dose. Liver specimens were collected from all animals immediately after the incision. Freezing forceps stored in liquid nitrogen were used to freeze the liver before excision.
Plasma samples were analyzed for 2′-methylguanosine (2′-MeG) by LC-MS/MS. The internal standard (1S) was 2′-MeG-D3. For protein precipitation and extraction, each plasma sample (50 μL) was treated with 500 μL of 0.2% formic acid in acetonitrile and 20 μL of the internal standard working solution. After vortexing and centrifugation, 500 μL of the sample extracts were transferred to a new plate, dried under N2 at ˜28° C. and reconstituted with 75 μL of 0.2% FA in water. The extracts were chromatographed on an Aquasil C18 column using a gradient system of 0.2% formic acid in water and acetonitrile. The analytes were detected and quantified by tandem mass spectrometry in positive ion mode on an MDS Sciex API5000 equipped with a Turbo Ionspray® interface. The calibration range was 0.500 (LLOQ) to 200 ng/mL in mouse plasma. The corresponding range for molar units is 1.68 to 673 pmol/mL.
Liver samples were analyzed for the active species 2′-methylguanosine triphosphate (2′-MeGTP) by LC-MS/MS. 2′-F, 2′-MeGTP levels were assayed by homogenizing (on ice) a known weight of mouse liver with 4× volume of 0.95 M trichloroacetic acid (TCA). Internal standard solution was added to the homogenate followed by neutralization with 20% ammonium hydroxide solution and addition of 500 μL 1% formic acid. The tissue samples were extracted by weak anion exchange solid phase extraction (SPE). Post extraction, the eluates were evaporated under nitrogen, followed by reconstitution before injection onto the LC-MS/MS system. The samples were chromatographed on a Luna NH2 column using a gradient system of ammonium acetate (1 mM to 20 mM and pH 8.0 to pH 10.0) in water and acetonitrile (70:30). The analyte was detected and quantified by tandem mass spectrometry in positive ion mode on an API4000 equipped with a Turbo Ionspray® interface. The calibration range was 10 to 10000 pmol/mL in mouse liver homogenate (50 to 50000 pmol/g of mouse liver).

As for `CCOC(=O)OC(C)OP(=O)(N[C@@H](C)C(=O)OC(C)C)OC[C@H]1O[C@@H](n2cnc3c(OC)nc(N)nc32)[C@](C)(F)[C@@H]1O` (single isomer, unassigned) [Compound 14], in data set [1], the “Percent Remaining, HLM (1 hr)” value stood at 0%. In data set [2], the “Percent Remaining, HIM (1 hr)” value is recorded as 41%. Moreover, in data set [3], the “Percent Remaining, HLS9 (1 hr)” value is given as 0.7%. Further, in data set [4], the “Percent Remaining, HIS9 (1 hr)” value came to 53%. In addition, in the data set on fresh human hepatocytes, the “FHH TP AUC” value was 4006 pmol.hr/mill cells and the “FHH TP Cmax” value is 155 pmol/mill cells. In addition, in the data set with mouse hepatocytes, the “MsH AUC” value is 8704 pmol.hr/mill cells and the “MsH Cmax” value is on record as 7534 pmol/mill cells. For the same compound, in data set [5], the “Ms 2′-F, 2′-MeGTP AUC” value amounted to 1900 pmol · hr/g at 1 μmol/kg; the “Ms Plasma 2′-F, 2′-MeG AUC” value amounted to 150 pmol · hr/mL at 1 μmol/kg; the “Ms Plasma 2′-F, 2′-MeG Cmax” value is 14 pmol/mL at 1 μmol/kg.
For the compound `CCOC(=O)OC(C)OP(=O)(N[C@@H](C)C(=O)OC(C)C)OC[C@H]1O[C@@H](n2cnc3c(OC)nc(N)nc32)[C@](C)(F)[C@@H]1O` (single isomer, unassigned) [Compound 15], the “Percent Remaining, HLM (1 hr)” value in data set [1] is given as 0%. Also, the “Percent Remaining, HIM (1 hr)” value in data set [2] is 54%. In addition, the “Percent Remaining, HLS9 (1 hr)” value in data set [3] is listed as 0%. The “Percent Remaining, HIS9 (1 hr)” value in data set [4] came out at 76%. In the data set on fresh human hepatocytes, the “FHH TP AUC” value was 4453 pmol.hr/mill cells and the “FHH TP Cmax” value is on record as 139 pmol/mill cells. Further, in the data set with mouse hepatocytes, the “MsH AUC” value worked out at 218 pmol.hr/mill cells and the “MsH Cmax” value is listed as 216 pmol/mill cells. In addition, in data set [5], the “Ms 2′-F, 2′-MeGTP AUC” value was determined as 900 pmol · hr/g at 1 μmol/kg; the “Ms Plasma 2′-F, 2′-MeG AUC” value turned out to be 130 pmol · hr/mL at 1 μmol/kg; the “Ms Plasma 2′-F, 2′-MeG Cmax” value is reported as 16 pmol/mL at 1 μmol/kg.

For the origin of these results see US20130064794A1, “Substituted Carbonyloxymethylphosphoramidate Compounds and Pharmaceutical Compositions for the Treatment of Viral Infections” (IDENIX PHARMACEUTICALS, INC., priority 2011, published 2013).
